pIC50: −log10 of the molar value.
Target: T1, ZIKV NS2B-NS3 protease (Zika virus ZIKV/H. sapiens/FrenchPolynesia/10087PF/2013, UniProt A0A024B7W1)
T1 construct: recombinant NS2B-NS3 protease cut from the ZIKV genome polyprotein; codon-optimized synthetic gene in pET22b; His-tag fused; E. coli BL21(DE3); Ni-NTA purified
Assay: fluorescence-based protease inhibition assay, ex […] nm / em […] nm
Format: biochemical
Settings: read-out: apparent IC50

T1 sequence (A0A024B7W1 1503-1680): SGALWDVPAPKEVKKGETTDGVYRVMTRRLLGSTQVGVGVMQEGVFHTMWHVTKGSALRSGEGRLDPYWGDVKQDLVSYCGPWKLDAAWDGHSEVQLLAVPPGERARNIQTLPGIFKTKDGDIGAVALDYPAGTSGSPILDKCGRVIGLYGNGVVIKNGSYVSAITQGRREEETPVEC

Structure (SMILES): O=[N+]([O-])c1ccc(Nc2ccc3[nH]ncc3c2)nc1N1CCNCC1 [compound 1]
- pIC50: 5.82

Reference: paper PMC8000814, “Structure-Based Virtual Screening: Identification of a Novel NS2B-NS3 Protease Inhibitor with Potent Antiviral Activity against Zika and Dengue Viruses” (Microorganisms, 2021)
